Data as given in patent US12404232B2, “Compounds and compositions for intracellular delivery of therapeutic agents” (ModernaTX, Inc., priority 2015, dated 2025).

Tests used:
mice [1] = experiment: Cytokine induction (IL-6, IP-10) in mice after intravenous administration; type: in vivo; set-up: IL-6 / IP-10: unit not given here; details: 0.5 mpk; for IL-6 / IP-10: 6 hours; for Cytokine expression (pg/ml) IL-6 (6 h) / Cytokine expression (pg/ml) IP-10 (6 h): hEPO mRNA
How it was run: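 Nanoparticle compositions given intravenously to mice at 0.5 mpk; serum cytokine concentrations measured at 6 hours, with MC3 formulation and PBS as comparators.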

mice [2] = experiment: Luc expression (total flux) after intramuscular administration; type: in vivo; details: 6 hours after intramuscular administration, Luc mRNA and H10 mRNA
rats = experiment: Residual lipid levels in liver and spleen of rats (UPLC-MS quantification); type: in vivo, rat; details: for Lipid level in liver / Lipid level in spleen: rat, i.v., 0.2 mpk; for % Lipid Remaining in liver, 48 h* 2 mpk: assuming 300 g rat and 15 g liver
Experimental: At 48 h liver tissue was harvested for lipid quantification. To pre-weighed tissues, Milli-Q water was added (900 μL water per 100 mg tissue). Tissues were homogenized using an Omni probe homogenizer until uniform. 50 μL of samples and matrix calibration standards were aliquoted into a 96-well plate. 50 μL of blank matrix for matrix blanks and control blanks were aliquoted. 400 μL IS spiking solution were manually added to all samples except matrix blanks. 400 μL of 50:50 ACN:IPA were manually added to matrix blanks. The plate was covered and the samples vortexed and centrifuged for 5 minutes at >3000 rpm. 200 μL of the samples were transferred into a clean 96-well plate for analysis. Samples were analyzed on a Waters Acquity UPLC using a Higgins Analytical Clipeus C8 column ([…], 30×2.1 mm) and a gradient of either 70-95% or 60-95% (Mobile Phase A: 5 mM ammonium formate in 50:50:1 H2O:MeOH:formic acid; Mobile Phase B: 5 mM ammonium formate in 100:1 MeOH:formic acid) over 1.3 min at 1.2 mL/min (column temperature 55° C.). Detection was based on electrospray ionization (ESI) in positive mode using a Sciex API5500 Mass Spectrometer.
The expression of hEPO in rats intravenously administered a nanoparticle composition at a dose of 0.2 mpk or 2.0 mpk was measured at 6 hours. Table 16 summarize the ratio of hEPO expression levels using various nanoparticle compositions as compared to the hEPO expression level using MC3 formulation and the lipid levels in the liver measured 48 hours after administration, as described above. Tables 17 and 18 summarize the lipid levels in the liver and spleen measured 48 hours after administration of Compounds 28, 33, 53, and 54. Liver and spleen levels represent the average values calculated for 3 rats in each group. As is shown in Tables 17 and 18, less than 10% of Compounds 28, 33, 53, and 54 remained in the liver after 48 hours, while greater than 60% of MC3 remained.
Table 19 summarizes the hEPO expression, IP-10 induction, liver and spleen levels, and alanine aminotransferase (ALT) and aspartate aminotransferase (AST) measured upon intravenous administration of formulations including Compounds 48, 49, and 50 to rat at 0.2 and 2 mpk and hEPO mRNA. hEPO concentrations were measured 6 hours after administration, while cytokine induction and liver and spleen levels were measured 48 hours after administration. hEPO and IP-10 concentrations are presented in pg/ml, while liver levels are provided in ng/g. ALT and AST levels are presented in international units.
The expression of hEPO induced by intravenous administration to rats of nanoparticle compositions at various doses was measured at 2, 4, 6, 8, 24, and 48 hour time points. FIGS. 3-6 respectively summarize the hEPO expression measured upon intravenous administration of formulations including Compounds 26, 18, 25, and MC3 to rat at various doses. The lipid levels of Compound 26 in the liver after 48 hours were about 19%.
The expression of hEPO and lipid levels in the liver and spleen in rats intravenously administered a nanoparticle composition at a dose of 0.2 mpk was measured at various timepoints. Compounds 18 and 25 were selected for comparison with MC3. Lipids were formulated according to the standard MC3 formulation described above. Rats were administered intravenously a single 0.2 mpk dose and expression monitored at 0.25, 0.5, 1, 2, 4, 8, 24, and 48 hours after administration.

Question: With `CCCCCCCCCOC(=O)CCCCCCCN(CCO)CCCCCCCC(=O)OC(CCCCCCCC)CCCCCCCC` [Compound 18, Heptadecan-9-yl 8-((2-hydroxyethyl)(8-(nonyloxy)-8-oxooctyl)amino)octanoate] as the molecule, how does the IL-6 (mice [1]) read?
Answer: Its IL-6 is 78.76.

Question: And the “Cytokine expression (pg/ml) IL-6 (6 h)” value (mice [1])?
Answer: Its value is 10.16 pg/mL.

Question: And the “Cytokine expression (pg/ml) IP-10 (6 h)” value (mice [1])?
Answer: Its value is 299.93 pg/mL.

Question: And the “Total flux (p/s) 0.01 mpk Dose” value (mice [2])?
Answer: Its value is 8.84E+07 p/s.

Question: And the “Lipid level in liver” value (rats; 0.25 h)?
Answer: Its value is 5374 ng/g.

Question: What about the “Lipid level in spleen” value (rats; 0.25 h) of the same molecule?
Answer: The value was 1230 ng/g.

Question: And the “Lipid level in liver” value (rats; 0.5 h)?
Answer: Its value is 6023 ng/g.

Question: What about the “Lipid level in spleen” value (rats; 0.5 h) of the same molecule?
Answer: Its value is 2017 ng/g.

Question: What about the “Lipid level in liver” value (rats; 1 h) of the same molecule?
Answer: The value was 6053 ng/g.

Question: And the “Lipid level in spleen” value (rats; 1 h)?
Answer: The value was 3213 ng/g.

Question: What about the “Lipid level in liver” value (rats; 2 h) of the same molecule?
Answer: The value was 2037 ng/g.

Question: What about the “Lipid level in spleen” value (rats; 2 h) of the same molecule?
Answer: The value was 3070 ng/g.

Question: What about the “Lipid level in liver” value (rats; 4 h) of the same molecule?
Answer: Its value is 839 ng/g.

Question: What about the “Lipid level in spleen” value (rats; 4 h) of the same molecule?
Answer: The value was 3770 ng/g.

Question: And the “Lipid level in liver” value (rats; 8 h)?
Answer: Its value is 296 ng/g.

Question: And the “Lipid level in spleen” value (rats; 8 h)?
Answer: The value was 1345 ng/g.

Question: And the “Lipid level in liver” value (rats; 24 h)?
Answer: The value was 5 ng/g.

Question: And the “Lipid level in spleen” value (rats; 24 h)?
Answer: The value was 271 ng/g.

Question: What about the “Lipid level in liver” value (rats; 48 h) of the same molecule?
Answer: Its value is 5374 ng/g.

Question: And the “Lipid level in spleen” value (rats; 48 h)?
Answer: The value was 92 ng/g.

Question: What about the “% Lipid Remaining in liver, 48 h* 2 mpk” value (rats; rats, 48 h) of the same molecule?
Answer: The value was 0.018%.

Question: Which results are given for `CCCCCCCCCCCOC(=O)CCCCCN(CCO)CCCCCCCC(=O)OC(CCCCCCCC)CCCCCCCC` [Compound 25, Heptadecan-9-yl 8-((2-hydroxyethyl)(6-oxo-6-(undecyloxy)hexyl)amino)octanoate]?
Answer: IL-6 (mice [1]): 233.45; IP-10 (mice [1]): 1194.13; Total flux (p/s) 0.001 mpk Dose (mice [2]): 3.53E+06 p/s; Total flux (p/s) 0.01 mpk Dose (mice [2]): 9.96E+07 p/s; % Lipid Remaining in liver, 48 h* 2 mpk (rats; rats, 48 h): 1.32%

Question: `CCCCCC=CCC=CCCCCCCCCC(CCCCCCCCC=CCC=CCCCCC)OC(=O)CCCN(C)C` (stereo not shown) [MC3, heptatriaconta-6,9,28,31-tetraen-19-yl 4-(dimethylamino)butanoate, reference compound] was tested. Which IL-6 (mice [1]) did it give?
Answer: The IL-6 was 124.42.

Question: And the IP-10 (mice [1])?
Answer: The IP-10 was 504.90.

Question: And the “Cytokine expression (pg/ml) IL-6 (6 h)” value (mice [1])?
Answer: The value was 19.85 pg/mL.

Question: And the “Cytokine expression (pg/ml) IP-10 (6 h)” value (mice [1])?
Answer: Its value is 117.94 pg/mL.

Question: What about the “Total flux (p/s) 0.001 mpk Dose” value (mice [2]) of the same molecule?
Answer: Its value is 2.76E+06 p/s.

Question: What about the “Total flux (p/s) 0.01 mpk Dose” value (mice [2]) of the same molecule?
Answer: Its value is 3.68E+07 p/s.

Question: And the “% Lipid Remaining in liver, 48 h* 2 mpk” value (rats; rats, 48 h)?
Answer: The value was 87%.

Question: And the “remained in the liver after 48 hours” value (rats; rats, intravenous, 48 hours)?
Answer: The value was “greater than 60%”.
